Columns and labels:
[1] = target: T1, membrane colocalisation of CNKSR1 and mutant-KRas (Homo sapiens, UniProt Q969H4); assay: Confocal imaging of CNKSR1 / mutant KRas colocalisation; assay type: cell-based; conditions: FIG. 12
T1 construct: fluorescent protein (GFP or mRFP); expressed in transfected cells; host or cells: HEK293T
T1 sequence (Q969H4 1-720): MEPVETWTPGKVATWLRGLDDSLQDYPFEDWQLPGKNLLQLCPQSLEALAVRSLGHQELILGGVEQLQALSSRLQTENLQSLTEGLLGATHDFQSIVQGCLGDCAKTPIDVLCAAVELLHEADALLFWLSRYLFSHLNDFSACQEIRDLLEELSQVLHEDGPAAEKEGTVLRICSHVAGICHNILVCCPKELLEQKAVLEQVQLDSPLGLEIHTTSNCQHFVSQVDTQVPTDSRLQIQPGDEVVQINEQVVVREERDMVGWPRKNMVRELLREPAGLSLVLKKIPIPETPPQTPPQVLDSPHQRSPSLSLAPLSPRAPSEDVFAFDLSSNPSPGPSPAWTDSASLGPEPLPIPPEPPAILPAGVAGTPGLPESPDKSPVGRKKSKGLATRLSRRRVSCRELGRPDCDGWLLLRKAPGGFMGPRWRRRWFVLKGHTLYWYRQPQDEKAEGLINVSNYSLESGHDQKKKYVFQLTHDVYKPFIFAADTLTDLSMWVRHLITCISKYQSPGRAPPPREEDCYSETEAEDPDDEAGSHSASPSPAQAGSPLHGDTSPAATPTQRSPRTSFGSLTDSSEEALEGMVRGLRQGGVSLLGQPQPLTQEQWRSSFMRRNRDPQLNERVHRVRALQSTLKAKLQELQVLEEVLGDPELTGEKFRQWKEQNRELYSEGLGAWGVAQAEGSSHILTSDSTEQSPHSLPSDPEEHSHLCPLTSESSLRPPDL
Procedure: HEK293T cells were co-transfected with CNK and either wild type or G12D mutant KRAS. Twenty-four hours post-transfection, cells were seeded on glass coverslips and allowed to grow a further 24 h and then serum deprived overnight. Cells were fixed with 4% (w/v) paraformaldehyde pH 8.0 for 20 min at room temperature. Following 6-7 washes with PBS (pH 8.0) the coverslip was mounted onto a slide with mounting medium (0.1% p-phenylenediamine/75% glycerol in PBS at pH 7.5-8.0). Confocal laser scanning microscopy was performed with a Leica SP5 confocal microscope system with 63× oil-immersion objective (numerical aperture NA=1.4), a line scan speed of 600 Hz, with image size of 1024×1024 pixels. GFP was excited with an argon-visible light laser tuned to 488 nm, mRFP were excited with a […] tuned to 543 nm GFP and RFP fluorescence emissions were collected using a photomultiplier tube via 514/10 nm and 595/10 nm band selections respectively.

[2] = target: T2, direct binding of CNKSR1 to mut-KRAS (Homo sapiens, UniProt Q969H4); assay: Fluorescence lifetime imaging microscopy (FLIM); assay type: cell-based; conditions: FIG. 13, FLIM
T2 construct: expressed in transfected cells
T2 sequence (Q969H4 1-720): T1 sequence (Q969H4 1-720)
Procedure: FLIM experiments were carried out using a Leica TCP SP5 inverted advanced confocal microscope system with internal photomultiplier tube (PMT) detector for TCSPC (time-correlated single-photon counting). The sample was excited with a tunable femtosecond (fs) titanium-sapphire laser with repetition rate of 80 MHz and pulse width less then 80 fs (Spectral Physics, Mai Tai BB). The wavelength used for two-photon excitation was 930 nm and the fluorescence was detected through a 525±25 nm interference filter. Images were obtained with oil-immersion objective (numerical aperture NA=1.4), a line scan speed of 400 Hz, with image size of 512×512 pixels. For FLIM analysis the pixels were reduced to 256×256. FLIM data was collected using Becker & Hickl SPC830 data and image acquisition card for TCSPC.

[3] = Stability in biological media: dog plasma; assay type: in vitro ADME; conditions: Dog plasma (beagle), 50 μg/ml, 37° C.
rHuman carboxyesterase 2 = target: T3, rHuman carboxyesterase 2 (Homo sapiens, UniProt O00748); assay: Stability with carboxyesterase 2; assay type: in vitro ADME; conditions: rHuman carboxyesterase 2 24 U/ml, pH 7.4, 37° C.
T3 sequence (O00748 27-559): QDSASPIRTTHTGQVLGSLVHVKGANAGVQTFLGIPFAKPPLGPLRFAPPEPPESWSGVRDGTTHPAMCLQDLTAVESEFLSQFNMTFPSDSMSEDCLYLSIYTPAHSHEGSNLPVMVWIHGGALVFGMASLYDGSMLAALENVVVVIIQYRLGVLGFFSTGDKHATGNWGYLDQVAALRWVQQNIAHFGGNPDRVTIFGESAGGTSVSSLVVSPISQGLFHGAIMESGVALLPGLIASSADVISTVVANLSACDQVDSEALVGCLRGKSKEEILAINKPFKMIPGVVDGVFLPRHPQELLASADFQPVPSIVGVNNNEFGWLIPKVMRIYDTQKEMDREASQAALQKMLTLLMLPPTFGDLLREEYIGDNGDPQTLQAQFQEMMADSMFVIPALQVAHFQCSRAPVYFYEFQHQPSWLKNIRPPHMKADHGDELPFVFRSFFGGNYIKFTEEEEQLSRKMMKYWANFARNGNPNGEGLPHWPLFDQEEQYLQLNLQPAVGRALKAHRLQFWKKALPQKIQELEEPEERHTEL

membrane colocalisation of CNKSR1 and mutant-KRas at the plasma membrane [1]: blocking | total mutant KRas protein in the cell [1]: lower | direct binding of CNKSR1 to mut-KRAS in cells [2]: inhibit | Half life [3]: 9.3 h | Half life (rHuman carboxyesterase 2): 1.65 h
Structure (SMILES): CCOC(=O)Cc1nn(Cc2nc(-c3ccc(C)cc3)cs2)c(=O)c2ccccc12 [Compound 7]

From patent US9340532B2, “Methods and compositions for inhibiting CNKSR1” (PHUSIS THERAPEUTICS, INC., priority 2012, dated 2016)
